≈ marks a conversion by molar mass, not a printed value. Peptide text beside a SMILES is read from it.
Legend:
S. enteritidis CVCC 3377 = test: MIC, microtiter plate assay; type: cell-based, Salmonella enteritidis; conditions: 37°C, 16∼20 h, triplicate
Description: (§1) The minimal inhibitory concentration (MIC) was evaluated by a microtiter plate assay ([Wiegand et al., 2008]). Serial 2-fold dilutions of test peptides were placed into a 96-well plate containing identical bacterial inoculum and incubated at 37°C for 16∼20 h. Vancomycin was used as antibiotic control. The MIC value was defined as the lowest peptide concentration where no visible growth occurred. All tests were made in triplicate.

[1] = system: S. epidermidis ATCC 12228; test: MIC, microtiter plate assay; type: cell-based, Staphylococcus epidermidis; conditions: 37°C, 16∼20 h, triplicate
Description: as §1

S. aureus CVCC 546 [2] = test: Time-kill assay; type: cell-based, Staphylococcus aureus; conditions: MHB, 10^5 CFU/mL, 37°C, n = 3
Excerpt: Time-kill assay was used to assess the killing rates of S. aureus cells by AMPs in vitro, done by measuring the number of viable bacteria left at various times after exposure to the peptides. […] At different time intervals, a certain sample was taken, serially diluted, and plated on MHA for colonies counting. Cells treated with 2 × MIC DLP4 or vancomycin and left without treatment were used as the positive and blank controls, respectively ([Flamm et al., 2019]).

[3] = system: Staphylococcus aureus CVCC 546; test: microbe, parasite or virus in culture; type: cell-based
Outline: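 Each strain was exposed to two-fold serial dilutions of peptide in a plate assay. After incubation for 16∼20 h at 37°C, wells were scored for growth, and the MIC was recorded as the lowest concentration lacking visible growth.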

S. aureus CVCC 546 [4] = test: Membrane permeabilization, PI flow cytometry; type: cell-based, Staphylococcus aureus; conditions: 0.5 h, 10^8 CFU/mL, n = 3
Description: The effects of peptides on membrane permeabilization were measured by flow cytometry ([Zhu et al., 2018]). […] Cells untreated and treated with 2 × MIC DLP4 or vancomycin were used as blank and positive controls. The fluorescence of the dye was monitored at an excitation wavelength of 488 nm and an emission wavelength of 635 nm.

CC[C@H](C)[C@@H]1NC(=O)[C@@H]2CSSC[C@@H](C(=O)N[C@@H](CCCNC(=N)N)C(=O)N[C@@H](CCCCN)C(=O)O)NC(=O)[C@H](CC(N)=O)NC(=O)[C@@H]3CSSC[C@H](NC(=O)[C@H](C)NC(=O)[C@H](C)NC(=O)[C@H](Cc4c[nH]cn4)NC(=O)CNC(=O)[C@H](C(C)C)NC(=O)[C@H](CCCCN)NC(=O)[C@H](Cc4ccccc4)NC(=O)[C@@H]4CCCN4C(=O)[C@H](CO)NC(=O)[C@H](CC(C)C)NC(=O)[C@H](CC(C)C)NC(=O)[C@H](CC(=O)O)NC(=O)[C@@H](NC(=O)[C@@H](NC(=O)[C@H](C)N)[C@@H](C)O)CSSC[C@H](NC(=O)[C@H](Cc4c[nH]c5ccccc45)NC(=O)CNC(=O)CNC(=O)[C@H](CCCNC(=N)N)NC(=O)[C@H](CCCCN)NC(=O)CNC(=O)[C@H](CCCNC(=N)N)NC(=O)[C@H](C)NC1=O)C(=O)N[C@@H](CC(=O)O)C(=O)NCC(=O)N[C@@H](CCCNC(=N)N)C(=O)N[C@@H](C)C(=O)N[C@@H](C(C)C)C(=O)N3)C(=O)N[C@@H](C)C(=O)N[C@@H](C)C(=O)N[C@@H](Cc1c[nH]cn1)C(=O)N2 [ID13] (HELM PEPTIDE1{A.T.C.D.L.L.S.P.F.K.V.G.H.A.A.C.A.A.H.C.I.A.R.G.K.R.G.G.W.C.D.G.R.A.V.C.N.C.R.K}$PEPTIDE1,PEPTIDE1,3:R3-30:R3|PEPTIDE1,PEPTIDE1,16:R3-36:R3|PEPTIDE1,PEPTIDE1,20:R3-38:R3$$$V2.0; N-terminus and C-terminus assumed)
MIC (S. enteritidis CVCC 3377): >30.50 µM
MIC [1]: 1.91 µM (≈ 8.02 µg/mL)
decrease of CFU counts within 1 h (S. aureus CVCC 546 [2]; 1 × MIC): 2.16 log10 CFU/mL
decrease of CFU counts within 1 h (S. aureus CVCC 546 [2]; 2 × MIC): 3.14 log10 CFU/mL
decrease of CFU counts within 1 h (S. aureus CVCC 546 [2]; 4 × MIC): 3.4 log10 CFU/mL
MIC ([3]; Table 1, – = no activity): 4
MIC ([3]; microtiter, 37°C, 16∼20 h, triplicate): 0.95 µM (≈ 3.99 µg/mL)
percentage of PI-positive cells (S. aureus CVCC 546 [4]; 1 × MIC): 47.2%
percentage of PI-positive cells (S. aureus CVCC 546 [4]; 2 × MIC): 48.2%
percentage of PI-positive cells (S. aureus CVCC 546 [4]; 4 × MIC): 52.8%

Reference: PMC7291858, “An Enhanced Variant Designed From DLP4 Cationic Peptide Against Staphylococcus aureus CVCC 546” (Frontiers in Microbiology, 2020)
